# Data from patent publication US4720506A, “Immunomodulating agent” (Nippon Shinyaku Company, Limited, priority 1982, dated 1988).
# Tests used:
# [1] = test system: Sheep Erythrocytes induced Delayed Type Hypersensitivity; assay: Sheep erythrocytes induced delayed type hypersensitivity (footpad swelling); format: in vivo, mice (ddY); conditions: Table 4, oral, 4 days, 24 hours after challenge
# Procedure: Effect on Sheep Erythrocytes induced Delayed Type Hypersensitivity
# 40 μl of Sheep erythrocytes adjusted to the concentration of 1×10^7 /40 μl was subcutaneously injected to the right footpad of mice (ddY weighing 25-30 g) and the medicament was administered orally for continuous 4 days including the day, on which sheep erythrocytes were administered.
# On the 4th day from the administration day of sheep erythrocytes, 40 μl of sheep erythrocytes adjusted to the concentration of 5×10^8 /40 μl was subcutaneously injected to the left footpad. After 24 hours, both of the thickness of the right and left footpad were measured. Footpad swelling due to the delayed type hypersensitivity was recognized as the difference between the thickness of the left and right footpad. The footpad swelling of the medicament-administration group was compared with that of physiological saline solution-administration group (control group).
# [2] = test system: mice; assay: Acute toxicity in mice; format: in vivo; conditions: 7th day
# Procedure: The medicament was suspended in 3% "Tween-80" and the suspension was administered orally or intraperitonealy at a dose shown in Table 1 to mice (ddY weighing 20-25 g).
# [3] = test system: Methylated Human Albumin induced Delayed Type Hypersensitivity; assay: Methylated human albumin induced delayed type hypersensitivity (footpad swelling); format: in vivo, mice (C3H); conditions: 4 days; for response vs control in vivo at 300 mg/kg / response vs control in vivo at 30 mg/kg / response vs control in vivo at 100 mg/kg: Mus musculus, 96 h
# Procedure: Effect on Methylated Human Albumin induced Delayed Type Hypersensitivity
# The medicament was administered orally for continuous 4 days including the immunization-day. On the 4th day from the immunization day, 25 μl of 0.1% methylated human albumin aqueous solution was subcutaneously injected to the footpad. After 24 hours, the thickness of the left and right footpad were measured, and the footpad swelling due to the delayed type hypersensitivity was represented as the difference between the thickness of the left and right footpad. The footpad swelling of the medicament-administration group was compared with that of physiological saline solution-administration group.
# [4] = test system: Plaque-Forming Cells in Spleen against Sheep Erythrocytes; assay: Plaque-forming cells in spleen against sheep erythrocytes in mice; format: in vivo, mice (Balb/c); conditions: oral, 4 days; for PFC, % Control: vs physiological saline
# Procedure: Effect on Plaque-forming Cells in Spleen against Sheep Erythrocytes in mice
# Balb/c mice of 5 weeks old were intravenously immunized with 1×10^8 sheep erythrocytes/mouse. 5 mice were used per group. Medicament was orally administered for 4 days from the day when the mice were immunized. Mice were sacrificed on the 5th day and the numbers of plaque-forming cells (PFC) in the spleen against sheep erythrocytes were determined by Fujiwara's modified method of Cunningham's method ["Method in Immunological Experiment A" edited by Japanese Society for Immunology, page 1272 (1974)].
SMILES,% Control of footpad swelling ([1]; 100 mg/kg),"Mortality ([2]; intraperitoneal, 1,000 mg/kg)","Mortality ([2]; oral, 5,000 mg/kg)","Footpad swelling, mean value ± standard error ([3]; Experiment 1, oral, 300 mg/kg)","Footpad swelling, mean value ± standard error ([3]; Experiment 2, oral, 30 mg/kg)","Footpad swelling, mean value ± standard error ([3]; Experiment 2, oral, 100 mg/kg)","Footpad swelling, mean value ± standard error ([3]; Experiment 2, oral, 300 mg/kg)","response vs control in vivo at 300 mg/kg ([3]; po, Experiment 1, 300 mg/kg)","response vs control in vivo at 30 mg/kg ([3]; po, Experiment 2, 30 mg/kg)","response vs control in vivo at 100 mg/kg ([3]; po, Experiment 2, 100 mg/kg)","response vs control in vivo at 300 mg/kg ([3]; po, Experiment 2, 300 mg/kg)",further results
"CC(=O)Nc1ccc(CC(=O)O)cc1 [Compound 10, 4-Acetylaminophenylacetate]",85.7%,0/5,0/5,44.5 ± 1.6 × 0.01 mm,46.1 ± 1.7 × 0.01 mm,41.8 ± 2.5 × 0.01 mm,42.3 ± 1.8 × 0.01 mm,70.3%,78.9%,71.6%,72.4%,"% Control of footpad swelling ([1]; 30 mg/kg): 77.0%; % Control of footpad swelling ([1]; 300 mg/kg): 71.6%; PFC, mean value ± standard error ([4]; Table 2, 30 mg/kg): 116.4 ± 8.64 × 2,500/spleen; PFC, % Control ([4]; Table 2, 30 mg/kg): 181%; PFC, mean value ± standard error ([4]; Table 2, 100 mg/kg): 107.2 ± 10.5 × 2,500/spleen; PFC, % Control ([4]; Table 2, 100 mg/kg): 167%; PFC, mean value ± standard error ([4]; Table 2, 300 mg/kg): 82.2 ± 7.0 × 2,500/spleen; PFC, % Control ([4]; Table 2, 300 mg/kg): 128%"
"CCOC(=O)Cc1ccc(NC(=O)C(C)C)cc1 [Compound 6, Ethyl 4-(isobutyrylamino)phenylacetate]",,0/5,1/5,56.8 ± 2.2 × 0.01 mm,,,,89.7%,,,,"Footpad swelling, mean value ± standard error ([3]; Experiment 1, oral, 30 mg/kg): 59.0 ± 1.8 × 0.01 mm; Footpad swelling, mean value ± standard error ([3]; Experiment 1, oral, 100 mg/kg): 55.6 ± 1.2 × 0.01 mm; response vs control in vivo at 30 mg/kg ([3]; po, Experiment 1, 30 mg/kg): 93.2%; response vs control in vivo at 100 mg/kg ([3]; po, Experiment 1, 100 mg/kg): 87.8%"
"CC(=O)Nc1ccc(C(C)C(=O)O)cc1 (stereo not drawn) [Compound 12, 2-(4-Acetylaminophenyl)propionic acid]",,0/5,0/5,,54.5 ± 1.7 × 0.01 mm,52.1 ± 1.5 × 0.01 mm,52.4 ± 1.9 × 0.01 mm,,93.2%,89.2%,89.7%,
"Cn1cnc([N+](=O)[O-])c1Sc1ncnc2nc[nH]c12 [Azathioprine, reference compound]",49.0%,,,,,41.4 ± 1.5 × 0.01 mm,,,,,,"response vs control in vivo at 100 mg/kg ([3]; Experiment 2, oral, 100 mg/kg): 70.9%"
"CC(=O)Nc1ccc(C(C)(C)C(=O)O)cc1 [Compound 11, 2-(4-Acetylaminophenyl)-2-methylpropionic acid]",,0/5,0/5,,54.5 ± 1.7 × 0.01 mm,55.4 ± 1.8 × 0.01 mm,51.3 ± 2.3 × 0.01 mm,,93.3%,94.9%,87.8%,
CC(C)C(=O)Nc1ccc(CC(=O)O)cc1 [Compound 13],,1/5,0/5,58.5 ± 2.4 × 0.01 mm,,,,92.4%,,,,"Footpad swelling, mean value ± standard error ([3]; Experiment 1, oral, 30 mg/kg): 57.2 ± 1.9 × 0.01 mm; Footpad swelling, mean value ± standard error ([3]; Experiment 1, oral, 100 mg/kg): 58.2 ± 1.9 × 0.01 mm; response vs control in vivo at 30 mg/kg ([3]; po, Experiment 1, 30 mg/kg): 90.4%; response vs control in vivo at 100 mg/kg ([3]; po, Experiment 1, 100 mg/kg): 91.9%"
"CCOC(=O)C(C)c1ccc(NC(C)=O)cc1 (stereo not drawn) [Compound 9, Ethyl 2-(4-acetylaminophenyl)propionate]",,0/5,,,51.4 ± 1.8 × 0.01 mm,55.3 ± 2.0 × 0.01 mm,56.0 ± 2.0 × 0.01 mm,,88%,94.7%,95.9%,"Mortality ([2]; oral, 1,500 mg/kg): 0/5"
"Cc1ccc(C(=O)Nc2ccc(CC(=O)O)cc2)cc1 [Compound 15, 4-(4-Methylbenzoylamino)phenylacetic acid]",,5/5,5/5,57.4 ± 1.5 × 0.01 mm,,,,90.7%,,,,"Mortality ([2]; intraperitoneal, 300 mg/kg): 0/5; Mortality ([2]; oral, 1,000 mg/kg): 0/5; Footpad swelling, mean value ± standard error ([3]; Experiment 1, oral, 30 mg/kg): 54.2 ± 1.7 × 0.01 mm; Footpad swelling, mean value ± standard error ([3]; Experiment 1, oral, 100 mg/kg): 56.7 ± 1.8 × 0.01 mm; response vs control in vivo at 30 mg/kg ([3]; po, Experiment 1, 30 mg/kg): 85.6%; response vs control in vivo at 100 mg/kg ([3]; po, Experiment 1, 100 mg/kg): 89.6%"
"CCCC(=O)Nc1ccc(CC(=O)O)cc1 [Compound 14, 4-n-Butyrylaminophenylacetic acid]",,0/5,,,50.9 ± 2.0 × 0.01 mm,51.8 ± 1.4 × 0.01 mm,56.7 ± 1.5 × 0.01 mm,,87.2%,88.7%,97.1%,
"CCOC(=O)Cc1ccc(NC(C)=O)cc1 [Compound 4, Ethyl 4-acetylaminophenylacetate]",93.8%,,,,,,,,,,,"% Control of footpad swelling ([1]; 30 mg/kg): 91.5%; % Control of footpad swelling ([1]; 300 mg/kg): 68.4%; Footpad swelling, mean value ± standard error ([3]; Experiment 3, oral, 30 mg/kg): 48.3 ± 2.6 × 0.01 mm; Footpad swelling, mean value ± standard error ([3]; Experiment 3, oral, 100 mg/kg): 49.4 ± 3.5 × 0.01 mm; Footpad swelling, mean value ± standard error ([3]; Experiment 3, oral, 300 mg/kg): 56.5 ± 2.9 × 0.01 mm; response vs control in vivo at 30 mg/kg ([3]; po, Experiment 3, 30 mg/kg): 75.5%; response vs control in vivo at 100 mg/kg ([3]; po, Experiment 3, 100 mg/kg): 77.2%; response vs control in vivo at 300 mg/kg ([3]; po, Experiment 3, 300 mg/kg): 88.3%"
"CCOC(=O)Cc1ccc(N)cc1 [Compound 1, Ethyl p-aminophenylacetate]",85.9%,1/5,,,,,,,,,,"% Control of footpad swelling ([1]; 30 mg/kg): 79.8%; % Control of footpad swelling ([1]; 300 mg/kg): 77.9%; Mortality ([2]; oral, 3,000 mg/kg): 0/5; PFC, mean value ± standard error ([4]; Table 3, 30 mg/kg): 89.4 ± 10.4 × 3,125/spleen; PFC, % Control ([4]; Table 3, 30 mg/kg): 135%; PFC, mean value ± standard error ([4]; Table 3, 100 mg/kg): 60.6 ± 8.6 × 3,125/spleen; PFC, % Control ([4]; Table 3, 100 mg/kg): 91%; PFC, mean value ± standard error ([4]; Table 3, 300 mg/kg): 82.0 ± 5.2 × 3,125/spleen; PFC, % Control ([4]; Table 3, 300 mg/kg): 123%"
